Reference: US20230339851A1, “CXCR6 SULFONAMIDE COMPOUNDS” (CHEMOCENTRYX, INC., priority 2022, published 2023)

Target: T1, human CXCR6 (Homo sapiens, UniProt O00574)
T1 construct: expressed in transfected cells
Assay: Radioligand Binding Assay (125I-CXCL16 displacement)
Details: L1.2 cells stably transfected with human CXCR6 cDNA, 0.1 nM 125I-CXCL16, 4° C., three-hour incubation; read-out: Potency (IC50)
Procedure, shortened: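 L1.2 cells stably expressing human CXCR6 incubated 3 h at 4 °C in HBSS/0.1% BSA with 0.1 nM 125I-CXCL16 and graded compound concentrations. Bound radioactivity collected by filtration and counted; IC50 from 3-parameter nonlinear regression.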

T1 sequence (O00574 whole entry): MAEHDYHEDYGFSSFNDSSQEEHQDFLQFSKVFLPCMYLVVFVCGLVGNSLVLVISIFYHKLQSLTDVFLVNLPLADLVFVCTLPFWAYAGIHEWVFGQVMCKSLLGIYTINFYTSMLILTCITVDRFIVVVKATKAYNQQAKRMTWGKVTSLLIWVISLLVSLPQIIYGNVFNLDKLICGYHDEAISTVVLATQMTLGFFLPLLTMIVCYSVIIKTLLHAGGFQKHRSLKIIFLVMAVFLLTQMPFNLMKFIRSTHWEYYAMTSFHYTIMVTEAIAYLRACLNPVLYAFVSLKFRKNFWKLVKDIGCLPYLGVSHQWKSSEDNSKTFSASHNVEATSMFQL

`Cc1cc(NC(=O)C2CCCO2)ccc1S(=O)(=O)Nc1cccc(C(F)(F)F)c1` (centres unmarked) [Example 1.271] gave an IC50 of 2000 to 20000 nM.
In the case of `CCOc1cc(NC(=O)C(C)O)ccc1S(=O)(=O)Nc1cccc(OC(F)(F)F)c1` (centres unmarked) [Example 1.532], the IC50 is reported as 200 to 750 nM.
For `CCOc1cc(NC(=O)[C@@H](CO)c2ccccc2)ccc1S(=O)(=O)Nc1cccc(C(F)(F)F)c1` [Example 1.437], the IC50 was ≤ 200 nM.
In the case of `COc1cc(NC(=O)[C@@H]2CCC[C@H]2N)ccc1S(=O)(=O)Nc1cccc(C(F)(F)F)c1` [Example 1.392], the IC50 is reported as 2000 to 20000 nM.
With `COc1cc(NC(=O)C2C3CCC(C3)N2C(=O)OC(C)(C)C)ccc1S(=O)(=O)Nc1cccc(C(F)(F)F)c1` (centres unmarked) [Example 1.506] the IC50 was 750 to 2000 nM.
In the case of `CCc1cc(NC(=O)[C@@H](CO)c2ccccc2)ccc1S(=O)(=O)Nc1cccc(OC(F)(F)F)c1` [Example 1.163], the IC50 is reported as ≤ 200 nM.
In the case of `CCOc1cc(NC(=O)C(CC2CC2)C(=O)O)ccc1S(=O)(=O)Nc1cccc(OC(F)(F)F)c1` (centres unmarked) [Example 1.013], the IC50 is reported as ≤ 200 nM.
`CCOc1cc(NC(=O)C(C)C(O)C2CCOCC2)ccc1S(=O)(=O)Nc1cccc(OC(F)(F)F)c1` (centres unmarked) [Example 1.072] was tested, and the IC50 was 200 to 750 nM.
Work on `O=C(Nc1ccc(S(=O)(=O)Nc2cccc(C(F)(F)F)c2)c(F)c1)c1ccccc1` [Example 1.549] yielded an IC50 of 2000 to 20000 nM.
`Cc1cc(NC(=O)c2ccoc2C)ccc1S(=O)(=O)Nc1cccc(C(F)(F)F)c1` [Example 1.019] gave an IC50 of 200 to 750 nM.
For `CCOc1cc(NC(=O)C(O)c2ccc(F)cc2)ccc1S(=O)(=O)Nc1cccc(OC(F)(F)F)c1` (centres unmarked) [Example 1.452], the IC50 was ≤ 200 nM.
`C[C@@H]1COCC[C@@H]1C(=O)Nc1ccc(S(=O)(=O)Nc2cccc(OC(F)(F)F)c2)c(C#N)c1` (racemic) [Example 1.341] showed an IC50 of 2000 to 20000 nM.
Work on `COCC1(C(=O)Nc2ccc(S(=O)(=O)Nc3cccc(C(F)(F)F)c3)c(C)c2)CC1` [Example 1.424] yielded an IC50 of 2000 to 20000 nM.
`CCOc1cc(NC(=O)[C@@H](O)C(C)C)ccc1S(=O)(=O)Nc1ccc(F)c(C2CC2)c1` [Example 1.211] was tested, and the IC50 was ≤ 200 nM.
For `COc1cc(NC(=O)CC2CC2)ccc1S(=O)(=O)Nc1cccc(C(F)(F)F)c1` [Example 1.414], the IC50 was 2000 to 20000 nM.
In the case of `CCOc1cc(NC(=O)C(CO)C2CCC2)ccc1S(=O)(=O)Nc1cccc(OC(F)(F)F)c1` (centres unmarked) [Example 1.376], the IC50 is reported as ≤ 200 nM.
In the case of `CCOc1cc(NC(=O)CC2(O)CCCCC2)ccc1S(=O)(=O)Nc1cccc(OC(F)(F)F)c1` [Example 1.474], the IC50 is reported as 200 to 750 nM.
`CCOc1cc(NC(=O)c2cccc(=O)n2C)ccc1S(=O)(=O)Nc1cccc(OC(F)(F)F)c1` [Example 1.037] gave an IC50 of 200 to 750 nM.
Compound `COc1cc(NC(=O)C2CCO[C@@H]2C)ccc1S(=O)(=O)Nc1cccc(OC(F)(F)F)c1` (some centres unmarked) [Example 1.364] has an IC50 of 750 to 2000 nM.
Work on `CCOc1cc(NC(=O)C(=O)c2ccccc2)ccc1S(=O)(=O)Nc1cccc(OC(F)(F)F)c1` [Example 1.023] yielded an IC50 of 200 to 750 nM.
`COc1cc(NC(=O)CC2CCCCCC2)ccc1S(=O)(=O)Nc1cccc(C(F)(F)F)c1` [Example 1.419] showed an IC50 of 2000 to 20000 nM.
Compound `CCOc1cc(NC(=O)CC(C)(O)CC)ccc1S(=O)(=O)Nc1cccc(OC(F)(F)F)c1` (centres unmarked) [Example 1.052] has an IC50 of 200 to 750 nM.
`CCOc1cc(NC(=O)C(CC(C)C)C(=O)O)ccc1S(=O)(=O)Nc1cccc(OC(F)(F)F)c1` (centres unmarked) [Example 1.421] was tested, and the IC50 was ≤ 200 nM.
In the case of `CCOc1cc(NC(=O)[C@@H](O)C(C)C)ccc1S(=O)(=O)Nc1ccc(Cl)c(OC(F)(F)F)c1` [Example 1.533], the IC50 is reported as ≤ 200 nM.
With `CC(=O)N[C@H](C(=O)Nc1ccc(S(=O)(=O)Nc2cccc(OC(F)(F)F)c2)c(C)c1)c1ccccc1` [Example 1.481] the IC50 was ≤ 200 nM.
`CCc1cc(NC(=O)c2ccnn2C)ccc1S(=O)(=O)Nc1cccc(C(F)(F)F)c1` [Example 1.232] was tested, and the IC50 was ≤ 200 nM.
In the case of `CCOc1cc(NC(=O)C(CC)CO)ccc1S(=O)(=O)Nc1cccc(OC(F)(F)F)c1` (centres unmarked) [Example 1.418], the IC50 is reported as ≤ 200 nM.
For `O=C(Nc1ccc(S(=O)(=O)Nc2cccc(OC(F)(F)F)c2)c(Cl)c1)[C@@H](CO)c1ccccc1` [Example 1.196], the IC50 was ≤ 200 nM.
`COc1ccc(C(=O)Nc2ccc(S(=O)(=O)Nc3cccc(C(F)(F)F)c3)c(C)c2)cc1` [Example 1.136] gave an IC50 of 750 to 2000 nM.
Work on `Cc1cc(NC(=O)[C@@H]2CCCN2C(=O)OC(C)(C)C)ccc1S(=O)(=O)Nc1cccc(C(F)(F)F)c1` [Example 1.012] yielded an IC50 of 2000 to 20000 nM.
`CCOc1cc(NC(=O)[C@@H](O)C(C)C)ccc1S(=O)(=O)Nc1ccc(C(F)(F)F)cc1` [Example 1.244] showed an IC50 of 200 to 750 nM.
In the case of `COc1cc(NC(=O)[C@@H](CO)C(C)C)ccc1S(=O)(=O)Nc1cccc(C(F)(F)F)c1` [Example 1.460], the IC50 is reported as ≤ 200 nM.
With `CCOc1cc(NC(=O)[C@@H](O)C(C)C)ccc1S(=O)(=O)Nc1cccc(C(C)C)c1` [Example 1.263] the IC50 was ≤ 200 nM.
`COc1cc(NC(=O)c2ccn[nH]2)ccc1S(=O)(=O)Nc1cccc(C(F)(F)F)c1` [Example 1.055] was tested, and the IC50 was 750 to 2000 nM.
With `CCOc1cc(NC(=O)[C@@H](O)C2CCCCC2)ccc1S(=O)(=O)Nc1cccc(OC(F)(F)F)c1` [Example 1.345] the IC50 was ≤ 200 nM.
For `CCOc1cc(NC(=O)C2CCCN(C(C)=O)C2)ccc1S(=O)(=O)Nc1cccc(OC(F)(F)F)c1` (centres unmarked) [Example 1.465], the IC50 was 2000 to 20000 nM.
For `Cc1cc(NC(=O)c2ccncc2)ccc1S(=O)(=O)Nc1cccc(C(F)(F)F)c1` [Example 1.524], the IC50 was 200 to 750 nM.
`CCOc1cc(NC(=O)C(C)C(O)C2CCCOC2)ccc1S(=O)(=O)Nc1cccc(OC(F)(F)F)c1` (centres unmarked) [Example 1.435] was tested, and the IC50 was 200 to 750 nM.
In the case of `Cc1cc(NC(=O)c2cccn2C)ccc1S(=O)(=O)Nc1cccc(C(F)(F)F)c1` [Example 1.486], the IC50 is reported as 750 to 2000 nM.
With `COc1cc(NC(=O)CC2CCOCC2)ccc1S(=O)(=O)Nc1cccc(C(F)(F)F)c1` [Example 1.574] the IC50 was 2000 to 20000 nM.
Compound `COc1cc(NC(=O)[C@H]2CC[C@@H](OC)CC2)ccc1S(=O)(=O)Nc1cccc(C(F)(F)F)c1` [Example 1.371] has an IC50 of 2000 to 20000 nM.
In the case of `CCOc1cc(NC(=O)c2cc[nH]c(=O)c2)ccc1S(=O)(=O)Nc1cccc(OC(F)(F)F)c1` [Example 1.103], the IC50 is reported as ≤ 200 nM.
For `CCOc1cc(NC(=O)[C@@H]2CCCCC[C@@H]2O)ccc1S(=O)(=O)Nc1cccc(OC(F)(F)F)c1` [Example 1.404], the IC50 was ≤ 200 nM.
With `CCOc1cc(NC(=O)[C@H]2CCOC[C@H]2CC)ccc1S(=O)(=O)Nc1cccc(OC(F)(F)F)c1` (racemic) [Example 1.233] the IC50 was ≤ 200 nM.
With `CCOc1cc(NC(=O)[C@@H](CO)C(C)C)ccc1S(=O)(=O)Nc1cccc(C(C)(F)F)c1` [Example 1.181] the IC50 was ≤ 200 nM.
`COc1cc(NC(=O)c2cc(C)nn2C)ccc1S(=O)(=O)Nc1cccc(C(F)(F)F)c1` [Example 1.254] showed an IC50 of 200 to 750 nM.
With `CCOc1cc(NC(=O)c2ccnc(OC)c2)ccc1S(=O)(=O)Nc1cccc(OC(F)(F)F)c1` [Example 1.076] the IC50 was 200 to 750 nM.
`COc1cc(NC(=O)[C@@H]2CCC[C@@H]2N)ccc1S(=O)(=O)Nc1cccc(C(F)(F)F)c1` [Example 1.347] gave an IC50 of 2000 to 20000 nM.
Work on `CCOc1cc(NC(=O)CC(C)(C)O)ccc1S(=O)(=O)Nc1cccc(OC(F)(F)F)c1` [Example 1.166] yielded an IC50 of 750 to 2000 nM.
In the case of `CCOc1cc(NC(=O)c2cccnc2N)ccc1S(=O)(=O)Nc1cccc(OC(F)(F)F)c1` [Example 1.162], the IC50 is reported as ≤ 200 nM.
`CCOc1cc(NC(=O)[C@H]2CCOC[C@H]2O)ccc1S(=O)(=O)Nc1cccc(OC(F)(F)F)c1` (racemic) [Example 1.107] was tested, and the IC50 was 200 to 750 nM.
With `CC(C)[C@H](O)C(=O)Nc1ccc(S(=O)(=O)Nc2cccc(OC(F)(F)F)c2)c(C#N)c1` [Example 1.165] the IC50 was 200 to 750 nM.
Compound `CCOc1cc(NC(=O)C2CCCCCC2)ccc1S(=O)(=O)Nc1cccc(OC(F)(F)F)c1` [Example 1.355] has an IC50 of 750 to 2000 nM.
`CCOc1cc(NC(=O)[C@@H](NC(C)=O)C(C)C)ccc1S(=O)(=O)Nc1cccc(OC(F)(F)F)c1` [Example 1.415] was tested, and the IC50 was ≤ 200 nM.
For `CCOc1cc(NC(=O)C2CCN(C)C(=O)C2)ccc1S(=O)(=O)Nc1cccc(OC(F)(F)F)c1` (centres unmarked) [Example 1.316], the IC50 was 750 to 2000 nM.
`CCOc1cc(NC(=O)[C@@H](CO)C2CC2)ccc1S(=O)(=O)Nc1cccc(OC(F)(F)F)c1` [Example 1.053] was tested, and the IC50 was ≤ 200 nM.
`CCOc1cc(NC(=O)C2(O)CCCCC2)ccc1S(=O)(=O)Nc1cccc(OC(F)(F)F)c1` [Example 1.083] was tested, and the IC50 was 750 to 2000 nM.
For `CCOc1cc(NC(=O)[C@@H](CO)C(C)C)ccc1S(=O)(=O)Nc1cccc(C2CC2)c1` [Example 1.082], the IC50 was ≤ 200 nM.
`CCOc1cc(NC(=O)[C@@H](O)C(C)C)ccc1S(=O)(=O)Nc1ccc(Cl)c(OC)c1` [Example 1.154] was tested, and the IC50 was 200 to 750 nM.
`CCOc1cc(NC(=O)[C@@H](CO)C(C)C)ccc1S(=O)(=O)Nc1ccc(C)c(F)c1` [Example 1.213] gave an IC50 of 200 to 750 nM.
`COc1cc(NC(=O)c2ccnn2C)ccc1S(=O)(=O)Nc1cccc(C#N)c1` [Example 1.331] was tested, and the IC50 was 2000 to 20000 nM.
With `CCOc1cc(NC(=O)c2ccc(C)nc2)ccc1S(=O)(=O)Nc1cccc(OC(F)(F)F)c1` [Example 1.149] the IC50 was ≤ 200 nM.
`CCOc1cc(NC(=O)[C@H]2CCCC[C@H]2OC)ccc1S(=O)(=O)Nc1cccc(OC(F)(F)F)c1` [Example 1.449] showed an IC50 of 2000 to 20000 nM.
`CCOc1cc(NC(=O)[C@@H](CO)C(C)C)ccc1S(=O)(=O)Nc1ccc(OC)c(C(F)(F)F)c1` [Example 1.005] was tested, and the IC50 was ≤ 200 nM.
Compound `Cc1cc(NC(=O)C(CO)C(C)C)ccc1S(=O)(=O)Nc1cccc(OC(F)(F)F)c1` (centres unmarked) [Example 1.400] has an IC50 of 200 to 750 nM.
In the case of `CCOc1cc(NC(=O)C2CCCC(=O)C2)ccc1S(=O)(=O)Nc1cccc(OC(F)(F)F)c1` (centres unmarked) [Example 1.269], the IC50 is reported as 200 to 750 nM.
In the case of `CCOc1cc(NC(=O)[C@@H](CO)c2ccccc2)ccc1S(=O)(=O)Nc1cccc(C(C)C)c1` [Example 1.541], the IC50 is reported as ≤ 200 nM.
In the case of `N#Cc1cc(NC(=O)[C@@H](CO)c2ccccc2)ccc1S(=O)(=O)Nc1cccc(OC(F)(F)F)c1` [Example 1.024], the IC50 is reported as ≤ 200 nM.
For `CCOc1cc(NC(=O)C(CO)c2ccc(F)cc2)ccc1S(=O)(=O)Nc1cccc(OC(F)(F)F)c1` (centres unmarked) [Example 1.204], the IC50 was ≤ 200 nM.
With `CCOc1cc(NC(=O)C(COC)C(=O)O)ccc1S(=O)(=O)Nc1cccc(OC(F)(F)F)c1` (centres unmarked) [Example 1.127] the IC50 was 200 to 750 nM.
`Cc1cc(NC(=O)[C@@H](O)c2ccccc2)ccc1S(=O)(=O)Nc1cccc(OC(F)(F)F)c1` [Example 1.266] was tested, and the IC50 was 200 to 750 nM.
